In one test the test system is E. coli LZ3111. Briefly: Antibacterial activity, MIC, quinolone resistant strain (Table 2). Format: cell-based. As to conditions: Escherichia coli, LZ3111, read-out: MIC LZ3111. In outline:
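Lowest concentration giving no macroscopically visible growth was taken as the MIC (μg/mL) after microbroth dilution testing.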

Test [1] has as its system Klebsiella pneumoniae (K. pneumoniae) 35657. In words: Antibacterial activity, MIC (Table 4). Type of test: cell-based. As to conditions: K. pneumoniae 35657, read-out: MIC, 35657. Put shortly: (§1)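 Activity was measured by microbroth dilution. The MIC, in μg/mL, is the lowest drug concentration that prevents macroscopically visible growth under the test conditions. The resistant strains are multi-drug resistant clinical isolates.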

For test [2], the system named is Acinetobacter baumannii (A. baumannii) BAA747. In words: Antibacterial activity, MIC (Table 4). Type of test: cell-based. Particulars: A. baumannii BAA747, read-out: MIC, BAA747. In outline:
as §1

Another test relates to E. coli 25922. In words: Antibacterial activity, microbroth dilution MIC (Table 1). Type of test: cell-based, Escherichia coli. Particulars: Escherichia coli; microbroth dilution; control Gram-negative E. coli 25922 strain; read-out: MIC, 25922. In outline: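 Potency is reported as minimum inhibitory concentration in μg/mL, determined by broth microdilution as the lowest level of compound that stops growth visible to the eye.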
In general terms: Broth dilution looks for growth in wells or tubes with falling amounts of substance.

The subject of test [3] is Escherichia coli (E. coli) BAS849. The test is described as above. Type of test: cell-based. As to conditions: microbroth dilution, super sensitive Gram-negative E. coli BAS849, read-out: MIC, BAS849. In outline:
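Lowest concentration stopping macroscopically visible growth under test conditions, by broth microdilution, defines the MIC (μg/mL).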

The subject of test [4] is Staphylococcus aureus (S. aureus) 29213. The test is described as above. Type of test: cell-based. Particulars: microbroth dilution, Gram-positive S. aureus 29213, read-out: MIC, 29213. Put shortly: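 Values are MICs (μg/mL): the smallest drug amount at which macroscopically visible bacterial growth is absent under assay conditions, from a microdilution method in broth.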

Another test concerns K. pneumoniae MXX1232. In words: Antibacterial activity, MIC, resistant strain (Table 4). Type of test: cell-based. Particulars: Klebsiella pneumoniae, MXX1232; resistant K. pneumoniae MMX1232, multi-drug resistant clinical isolate; read-out: MIC, MMX1232. Put shortly:
as §1

The next test concerns A. baumannii MXX2240. The test is described as above. Format: cell-based. Particulars: Acinetobacter baumannii, MXX2240; resistant A. baumannii MMX2240, multi-drug resistant clinical isolate; read-out: MIC, MMX2240. Put shortly: as §1
For test [5], the system named is Pseudomonas aeruginosa (P. aeruginosa) 27853. Briefly: Antibacterial activity, MIC (Table 5). Particulars: P. aeruginosa 27853, read-out: MIC, 27853. Format: cell-based. Put shortly: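 MIC in μg/mL from broth microdilution; endpoint is the lowest drug level giving no visible growth.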
The next test relates to E. coli ELZ4251. Briefly: Antibacterial activity, MIC, multi-drug resistant clinical isolate (Table 3). As to conditions: Escherichia coli. Format: cell-based. Put shortly:
(§2)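 Growth inhibition is measured by microbroth dilution, and the minimum inhibitory concentration in μg/mL corresponds to the lowest drug level that prevents visible bacterial growth.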

The subject of another test is E. coli ELZ4000. The test is described as above. Format: cell-based. Particulars: Escherichia coli, ELZ4000, read-out: MIC ELZ4000. In outline:
as §2

For test [6], the system named is Neisseria meningitidis (N. meningitidis) 13090. In words: Antibacterial activity, MIC (Table 8). Type of test: cell-based. The text has this:
The antibacterial activity from a microbroth dilution method may be presented as the minimum inhibitory concentration (MIC in μg/mL). The MIC value is the lowest concentration of drug which prevents macroscopically visible growth under test conditions.
Antibacterial activity of test compounds against the Gram-negative bacteria Haemophilus influenzae (H. influenzae) 49247 is shown in Table 6, Moraxella catarrhalis (M. catarrhalis) 25238 is shown in Table 7 and Neisseria meningitidis (N. meningitidis) 13090 is shown in Table 8.

Each structure is given as a SMILES string. In brackets after ≈: the same amount, converted by molar mass.

`CCc1cc(C(=O)O)c(=O)[nH]c1-c1ccc2c(c1)cc(CCN(C)C)n2C` [Cpd 161, 6-(2-(2-(dimethylamino)ethyl)-1-methyl-1H-indol-5-yl)-5-ethyl-2-oxo-1,2-dihydropyridine-3-carboxylic acid]: the MIC (as a rule, the least concentration at which growth counts as inhibited) was 12.5 to 150 µg/mL (≈ 34 to 408 µM) in the test on E. coli LZ3111; < 1 µg/mL in test [1]; 3.5 to 12.5 µg/mL (≈ 9.53 to 34 µM) in test [2]; < 1 µg/mL in the test on E. coli 25922; < 1 µg/mL in test [3]; 12.5 to 150 µg/mL (≈ 34 to 408 µM) in [4]. Further, the MIC with K. pneumoniae MXX1232 lay within 12.5 to 150 µg/mL (≈ 34 to 408 µM); in the test with A. baumannii MXX2240 it was 12.5 to 150 µg/mL (≈ 34 to 408 µM); in test [5], 3.5 to 12.5 µg/mL (≈ 9.53 to 34 µM); against E. coli ELZ4251, 12.5 to 150 µg/mL (≈ 34 to 408 µM); in the test on E. coli ELZ4000, 12.5 to 150 µg/mL (≈ 34 to 408 µM).

On to `CCc1c(-c2ccc3c(c2)cc(CN2CCCC2)n3C)[nH]c(=O)c(C(=O)O)c1O` [Cpd 164, 5-ethyl-4-hydroxy-6-(1-methyl-2-(pyrrolidin-1-ylmethyl)-1H-indol-5-yl)-2-oxo-1,2-dihydropyridine-3-carboxylic acid], for which the MIC in the test on E. coli LZ3111 is 3.5 to 12.5 µg/mL (≈ 8.85 to 31.6 µM); in test [1], 3.5 to 12.5 µg/mL (≈ 8.85 to 31.6 µM); in [2] it was < 1 µg/mL; with E. coli 25922 it was < 1 µg/mL; in test [3] it was < 1 µg/mL; in [4], 3.5 to 12.5 µg/mL (≈ 8.85 to 31.6 µM). In addition, the MIC is 12.5 to 150 µg/mL (≈ 31.6 to 379 µM) with K. pneumoniae MXX1232; 3.5 to 12.5 µg/mL (≈ 8.85 to 31.6 µM) in the test with A. baumannii MXX2240; 3.5 to 12.5 µg/mL (≈ 8.85 to 31.6 µM) in test [5]; 12.5 to 150 µg/mL (≈ 31.6 to 379 µM) against E. coli ELZ4251; 12.5 to 150 µg/mL (≈ 31.6 to 379 µM) with E. coli ELZ4000.

On to `CCc1c(-c2ccc3c(c2)cc(CN2CCC(O)C2)n3C)[nH]c(=O)c(C(=O)O)c1O` (centres unmarked) [Cpd 178, 5-ethyl-4-hydroxy-6-(2-((3-hydroxypyrrolidin-1-yl)methyl)-1-methyl-1H-indol-5-yl)-2-oxo-1,2-dihydropyridine-3-carboxylic acid], for which the MIC with E. coli LZ3111 was 3.5 to 12.5 µg/mL (≈ 8.51 to 30.4 µM); in [1], 3.5 to 12.5 µg/mL (≈ 8.51 to 30.4 µM); in test [2] it was 1 to 3.5 µg/mL (≈ 2.43 to 8.51 µM); with E. coli 25922, < 1 µg/mL; in test [3], < 1 µg/mL; in test [4], 3.5 to 12.5 µg/mL (≈ 8.51 to 30.4 µM). Moreover, the minimum inhibitory concentration (MIC) in the test with K. pneumoniae MXX1232 is 12.5 to 150 µg/mL (≈ 30.4 to 365 µM); with A. baumannii MXX2240, 12.5 to 150 µg/mL (≈ 30.4 to 365 µM); in test [5], 3.5 to 12.5 µg/mL (≈ 8.51 to 30.4 µM); in the test on E. coli ELZ4251, 12.5 to 150 µg/mL (≈ 30.4 to 365 µM); with E. coli ELZ4000 it was 12.5 to 150 µg/mL (≈ 30.4 to 365 µM).

Take `CCc1c(-c2ccc3c(c2)cc2n3CCC2N2CCCC2)[nH]c(=O)c(C(=O)O)c1O` (centres unmarked) [Cpd 304, 5-ethyl-4-hydroxy-2-oxo-6-(1-(pyrrolidin-1-yl)-2,3-dihydro-1H-pyrrolo[1,2-a]indol-7-yl)-1,2-dihydropyridine-3-carboxylic acid]: the MIC in the test on E. coli LZ3111 was 3.5 to 12.5 µg/mL (≈ 8.59 to 30.7 µM); in test [1], 3.5 to 12.5 µg/mL (≈ 8.59 to 30.7 µM); in test [2], 1 to 3.5 µg/mL (≈ 2.45 to 8.59 µM); in the test with E. coli 25922 it was < 1 µg/mL; in test [3], < 1 µg/mL; in test [4] it was 12.5 to 150 µg/mL (≈ 30.7 to 368 µM). Moreover, the MIC (in the test with K. pneumoniae MXX1232; with A. baumannii MXX2240; in [5]; against E. coli ELZ4251; in the test with E. coli ELZ4000) was 12.5 to 150 µg/mL (≈ 30.7 to 368 µM) each time.

For the molecule `Cc1c(-c2ccc3c(c2)cc(CNC2CCC2)n3C)[nH]c(=O)c(C(=O)O)c1O` [Cpd 354, 6-(2-((cyclobutylamino)methyl)-1-methyl-1H-indol-5-yl)-4-hydroxy-5-methyl-2-oxo-1,2-dihydropyridine-3-carboxylic acid], the minimal inhibitory concentration (MIC) was < 1 µg/mL with E. coli LZ3111; < 1 µg/mL in test [6]; 1 to 3.5 µg/mL (≈ 2.62 to 9.18 µM) in test [1]; 1 to 3.5 µg/mL (≈ 2.62 to 9.18 µM) in [2]; 1 to 3.5 µg/mL (≈ 2.62 to 9.18 µM) in the test on E. coli 25922; < 1 µg/mL in [3]. Besides, the minimal inhibitory concentration (MIC) in test [4] was 12.5 to 150 µg/mL (≈ 32.8 to 393 µM); with K. pneumoniae MXX1232, 12.5 to 150 µg/mL (≈ 32.8 to 393 µM); with A. baumannii MXX2240, < 1 µg/mL; in test [5], 12.5 to 150 µg/mL (≈ 32.8 to 393 µM); in the test on E. coli ELZ4251, < 1 µg/mL; in the test with E. coli ELZ4000 it was 3.5 to 12.5 µg/mL (≈ 9.18 to 32.8 µM).

Take `Cc1c(-c2ccc3c(c2)cc2n3CC(N)C2)[nH]c(=O)c(C(=O)O)c1O.Cl` (centres unmarked) [Cpd 412, 6-(2-amino-2,3-dihydro-1H-pyrrolo[1,2-a]indol-7-yl)-4-hydroxy-5-methyl-2-oxo-1,2-dihydropyridine-3-carboxylic acid hydrochloride]: the MIC in the test with E. coli LZ3111 lay in the range of 1 to 3.5 µg/mL; in [6], 1 to 3.5 µg/mL; in test [1] it was 3.5 to 12.5 µg/mL; in test [2], 12.5 to 150 µg/mL; in the test on E. coli 25922, 3.5 to 12.5 µg/mL; in [3], 1 to 3.5 µg/mL. Moreover, the MIC is 12.5 to 150 µg/mL in [4]; 12.5 to 150 µg/mL in the test on K. pneumoniae MXX1232; 12.5 to 150 µg/mL with A. baumannii MXX2240; 12.5 to 150 µg/mL in test [5]; 3.5 to 12.5 µg/mL in the test with E. coli ELZ4251; 3.5 to 12.5 µg/mL with E. coli ELZ4000.

For the origin of these results see US9409905B2, “Antibacterial compounds and methods for use” (PTC THERAPEUTICS, INC., priority 2011, dated 2016).
